Results published in patent publication US10576078B2 (Council of Scientific & Industrial Research, priority 2017, dated 2020).
Like-named read-outs stand apart in the source and are kept apart here.

Assays:
[1] = test system: Peripheral blood mononuclear cells from control donors; test: Apoptosis by annexin V/PI staining in PBMC from control donors; format: cell-based, Human; settings: 5 μM, 48 h
[2] = test system: CD34+ cells from imatinib-resistant patients (quiescent LSCs); test: CFSE assay of quiescent LSCs; format: cell-based, Human
Procedure: Cells were gated depending on CFSE intensity. […] Apoptosis in these cells was determined by annexin V staining.
For assessing apoptosis in quiescent LSCs, purified CD34^+ cells were first stained with carboxyfluorescein succinimidyl ester (CFSE; Invitrogen) for 30 min. Cells were then washed and resuspended in SFM medium with 5 growth factors and were kept at 37° C. overnight. Next day, cells were treated as indicated in SFM medium with growth factors and were maintained further for 4 days with supplementation of the drugs every 48 h (drug concentrations in FIG. 5 and its description). Cells were then harvested, washed, and were labeled with CD34-PE and Annexin-APC antibodies and then gated into non-dividing cells (CD34^+CFSE^bright) and dividing cell (CD34^+CFSE^dim) population based on CFSE fluorescence intensity. […] Number of cells or apoptosis was determined by flowcytometry.

[3] = test system: CrkL; test: Immunoblotting of CrkL phosphorylation in K562 cells; format: cell-based, Human; settings: 30 min, Y207
Procedure: K562 cells were treated as indicated for 30 min and stat5 phosphorylation at Y694 or CrkL phosphorylation at Y207 were assessed by immunoblotting. Total stat5 or β-actin expression was assessed to ensure equal loading. Pio was used as a negative control and IMT was used as a positive control. Data is one representative of 3 independent experiments.
K562 cells were cultured in 6 well plates and treated as indicated in figures or descriptions of FIG. 1E, FIG. 1G and FIG. 2D-E. Cells were then homogenized in lysis buffer containing 50 mM Tris-HCl, pH 7.5, 150 mM NaCl, 1% NP40, 5 mM EDTA, 1 mM DTT, protease and phosphatase inhibitor cocktails (Sigma) and incubated on ice for 30 min followed by 5 cycles of freeze-thaw. Samples were then centrifuged at 14000 rpm at 4° C. for 30 min. Supernatants were then quantified by Bichinchonic acid (Sigma)-based protein estimation. Equal amount of proteins were solubilized in Laemmli buffer, and were resolved by 10%-12% SDS PAGE and transferred onto PVDF membranes (Millipore; Billerica, Mass.). Membranes were blocked in 5% (w/v) non-fat dried milk powder (Sigma) in PBS containing 0.2% Tween 20 (Sigma). […] Immunoreactivity was detected using a chemiluminescent HRP Substrate (Millipore) in a LAS 4010 Chemi-doc Imager (GE Healthcare, Little Chalfont, UK). […]

[4] = test system: CP-CML cells; test: Megakaryocytic surface markers in CP-CML cells by flow cytometry; format: cell-based, Human; settings: 2.5 μM CFZ, 72 h
Procedure: FIG. 3D-3E in particular show CFZ induces megakaryocytic surface markers CD61 and CD41 in CP-CML cells. CD61 (D) and CD41 (E) surface expression in CP-CML (gated monocytes) cells after treatment with 2.5 μM CFZ for 72 h were assessed by flowcytometry. *p<0.05, ***p<0.0001.
Differentiation analyses by flow cytometry: K562 (FIG. 3B-C) or primary CP-CML cells (FIG. 3D-E) were treated with vehicle, CFZ and PMA as indicated in the respective figures and figure descriptions for 72 hrs. Cells were then harvested, washed, and centrifuged, resuspended in 100 μl PBS and were stained with CD41-FITC or CD61-PE antibodies for 30 min at room temperature (in dark). After incubation, the cells were washed and resuspended in 300 μl PBS and were analyzed on a FACSCalibur flow cytometer.

[5] = test system: K562 cells; test: K562 cell viability, CellTiter-Glo luminescent assay; format: cell-based, Human; settings: 48 h; for IC50: Homo sapiens
Procedure: K562 cells were treated with indicated concentrations of CFZ for 24 h or 48 h, cell viability was then assessed using the CellTiter-Glo luminescent cell viability assay (Promega). Data is mean±SEM of three independent experiments (each in triplicates). IC50 was calculated using Graphpad prism 5 software.
K562 cells were treated as indicated for 48 h and cell viability was determined by CellTiter-Glo luminescent cell viability assay (A) graphical representation of mean±SEM of three independent experiments.
Determination of CFZ's Effect on Cell Viability and Apoptosis • a. CellTitre-Glo assay: Cell viability (in FIG. 1B, FIG. 4 and FIG. 6A) assays was performed using the ATP-based CellTiter-Glo Luminescent cell viability assay (Promega Madison, Wis.) as per the manufacturer's instruction. Briefly, (1.25×10^5) K562 cells/ml (FIG. 1B and FIG. 4) or CD34+ cells from healthy donors (FIG. 6A) were cultured in 48-well plates and were treated as indicated in the respective figures and figure descriptions (vehicle; V=0.1% DMSO). Cells were then incubated with CellTitre-Glo reagent for 15 min. Luminescence was recorded in a GloMax-96 Microplate luminometer (Promega, Madison, Wis.) with an integration time of 1 s per well. • b. Analysis of apoptosis by Annexin V staining and flow cytometry • K562 (FIG. 1C-D) and primary CP-CML cells (FIG. 1H-I) were cultured in 6 well plates (2×10^5 cells/well) and were treated with indicated concentrations of compounds as described in respective figures and their descriptions. Cells were then harvested and washed, and incubated in binding buffer (Annexin V Binding Buffer, BD Pharmingen) with 0.3% Annexin V-FITC and PI for 15 min at room temperature in dark. Apoptosis was measured by FACSCalibur flow cytometer (Becton Dickenson, San Jose, Calif.). • c. TUNEL assay • Pro-apoptotic potential was analysed using a Fluorometric APO-BrdU™ TUNEL Assay Kit (Invitrogen) according to the manufacturer's protocol (FIG. 1F). Cells were treated with Vehicle (0.1% DMSO) or CFZ (5 μM) for 48 h. Cells were then fixed in formaldehyde (4%) for 25 min at 4° C., permeabilized with 0.2% Triton-X100 and washed with PBS. Cells were then incubated in Terminal Deoxynucleotidyl Transferase (TdT) reaction buffer without TdT enzyme for 7 minutes at room temperature and then in TdT buffer with TdT enzyme at 37° C. in dark. After termination of TdT reaction, cells were stained with 5 μg/ml of PI for 15 min in dark followed by washing and analysed with fluorescence microscopy.

[6] = cited from earlier work
[7] = test system: K562 cells; test: Western blotting of apoptosis proteins in K562 cells; format: cell-based, Human
Procedure: PARP cleavage in K562 cells was assessed by western blotting. One representative of three independent experiments is shown.
The expression of indicated proteins was determined by immunoblotting in K562 cells following indicated treatments. One representative of three independent experiments is shown.
K562 cells were cultured in 6 well plates and treated as indicated in figures or descriptions of FIG. 1E, FIG. 1G and FIG. 2D-E. Cells were then homogenized in lysis buffer containing 50 mM Tris-HCl, pH 7.5, 150 mM NaCl, 1% NP40, 5 mM EDTA, 1 mM DTT, protease and phosphatase inhibitor cocktails (Sigma) and incubated on ice for 30 min followed by 5 cycles of freeze-thaw. Samples were then centrifuged at 14000 rpm at 4° C. for 30 min. Supernatants were then quantified by Bichinchonic acid (Sigma)-based protein estimation. Equal amount of proteins were solubilized in Laemmli buffer, and were resolved by 10%-12% SDS PAGE and transferred onto PVDF membranes (Millipore; Billerica, Mass.). Membranes were blocked in 5% (w/v) non-fat dried milk powder (Sigma) in PBS containing 0.2% Tween 20 (Sigma). The membranes were then sequentially incubated with primary and secondary antibodies in PBS containing 0.2% Tween 20 and 2.5% BSA (with 3 washes in between). Immunoreactivity was detected using a chemiluminescent HRP Substrate (Millipore) in a LAS 4010 Chemi-doc Imager (GE Healthcare, Little Chalfont, UK). Antibodies used: phospho-STAT5, STAT5, cleaved PARP and caspases-3, -8, -9, pCrkL, Bcl2 and Bax antibodies were from Cell Signaling Technology (Boston, Mass.). Mouse monoclonal anti-β-Actin-Peroxidase and horse raddish peroxidase-conjugated secondary antibodies were from Sigma-Aldrich. For immunoblotting all primary antibodies were used in 1:1000 dilutions except β-actin (1:50000). Secondary antibodies were used at 1:10000 dilutions.

SMILES: CC(C)/N=c1\cc2n(-c3ccc(Cl)cc3)c3ccccc3nc-2cc1Nc1ccc(Cl)cc1 [CFZ, Clofazimine]
- apoptosis in cells from control donors [1]: didn't affect
- apoptosis in CFSE-bright cells ([2]; 96 h, annexin V): robust apoptosis
- apoptosis in CFSE-dim cells ([2]; 96 h, annexin V): robust apoptosis
- CFSE-dim (dividing cell) population ([2]; n=3, 96 h): increased
- number of CFSE-bright (non-dividing) cells ([2]; n=3, 96 h): drastically reduced
- CrkL phosphorylation [3]: did not alter
- megakaryocytic surface marker CD41 [4]: increased
- megakaryocytic surface marker CD61 [4]: increased
- combination index (CI) ([5]; CFZ with dasatinib, Compusyn): < 1
- combination index (CI) ([5]; CFZ with imatinib, Compusyn program): < 1
- IC50 ([5]; FIG. 1B, read-out: IC50 (48 h), reduction of viability): 5.85 µM
- IC50 ([5]; drug alone, FIG. 4A, read-out: IC50, K562 cell viability assay (48 h)): 4.13 µM
- average human plasma level of CFZ ([6]; following daily oral administration of 100 mg CFZ): 0.7 mg/L
- human plasma Cmax of CFZ ([6]; human plasma): 400 to 4000 ng/mL
- Bax expression [7]: increased
- Bcl-2 expression [7]: decreased
- caspase-3 activation [7]: activated
- caspase-9 activation [7]: activated
- cytochrome C release [7]: induced
- apoptosis as determined by PARP cleavage ([7]; western blotting): induces apoptosis
